According to US11015224B2, “RAF gene fusions” (THE REGENTS OF THE UNIVERSITY OF MICHIGAN, priority 2010, dated 2021):

Tests used:
BRAFV600E mutation = BRAFV600E mutation (Homo sapiens, UniProt P15056, V600E); settings: Sala et al. 2008; cited from earlier work
[1] = tested on: RWPE cells overexpressing ESRP1-RAF1; test: Cell proliferation assay (WST-1); assay type: cell-based, human; settings: RWPE cells overexpressing ESRP1-RAF1, FIG. 3d
From the text: Cell invasion and proliferation assays.

[2] = tested on: RWPE cells stably expressing ESRP1-RAF1; settings: sorafenib or U0126 (10 μM), 14 d, FIG. 4c,d
Experimental: (§1) In vitro soft agar growth. For in vitro growth in soft agar, 2 ml of 0.6% SeaPlaque GTG Agarose (Cambrex) dissolved in complete keratinocyte supplement-free medium (Invitrogen) was poured into six-well dishes. After polymerization, a second layer containing 2 ml of 0.4% agar in complete keratinocyte supplement-free medium, and RWPE cells stably expressing SLC45A3-BRAF or ESRP1-RAF 1 (1×10^4 cells per well) were poured on top. The next day, cells were treated with sorafenib or U0126 (10 μM) in 1 ml of supplement-free keratinocyte medium. Soft-agar assay plates were incubated for 14 d at 37° C. MEK inhibitor (U0126) or sorafenib was changed once a week. Each experimental condition was done in triplicate. On day 14, colonies larger than 40 μm in diameter were counted.

[3] = tested on: RWPE cells stably expressing SLC45A3-BRAF; settings: sorafenib or U0126 (10 μM), 14 d, FIG. 4c,d
Experimental: as §1

[4] = tested on: RWPE cells expressing ESRP1-RAF1; settings: sorafenib (10 μM) or U0126 (1 or 10 μM), FIG. 4a,b
Experimental: (§2) Cell invasion and proliferation assays. Equal numbers of cells were plated into 96-well plates, and a cell proliferation assay was performed using WST-1 reagent (Roche) following the manufacturer's protocol. For the Boyden chamber Matrigel invasion assay, equal numbers of cells were plated into each Matrigelcoated transwell in the presence of sorafenib or U0126 (Calbiochem) or DMSO (Sigma). Invasion assays were performed as described previously (Kleer, C. G. et al. Proc. Natl. Acad. Sci. USA 100, 11606-11611 (2003); Cao, Q. et al. Oncogene 27, 7274-7284 (2008)).

[5] = tested on: RWPE cells expressing SLC45A3-BRAF; settings: sorafenib (10 μM) or U0126 (1 or 10 μM), FIG. 4a,b
Experimental: as §2

[6] = tested on: RWPE cells overexpressing SLC45A3-BRAF; settings: FIG. 3c
Experimental: as §2

[7] = tested on: MEK½ and ERK½ phosphorylation in BRAFV600E mutation-positive melanoma cell line SK-MEL-94; settings: SK-MEL-94 control cell line
Experimental: (§3) MEK-ERK signaling pathway analysis. Stable pooled populations of RWPE cells expressing SLC45A3-BRAF or […] were maintained in supplement-free medium without supplements for 2 h. For MEK inhibitor treatments, U0126 (10 μM) was added in the supplement-free keratinocyte medium for 2 h. MEK and ERK activation was assessed by western blot analysis with antibodies to phospho-MEK or ERK and total MEK or ERK antibodies (Cell Signaling Technologies).

[8] = tested on: MEK and ERK phosphorylation in RWPE cells expressing SLC45A3-BRAF; settings: U0126 (10 μM) for 2 h, FIG. 4e
Experimental: as §3

[9] = tested on: MEK and ERK phosphorylation in RWPE cells expressing ESRP1-RAF1; settings: U0126 (10 μM) for 2 h, FIG. 4e
Experimental: as §3

[10] = tested on: DUSP6 or SPRY2 mRNA expression in RWPE cells expressing SLC45A3-BRAF; settings: U0126, 10 mM, 2 hours, Keratinocyte-supplement free media, FIG. 11
Experimental: as §3
(§4) Real Time PCR validation. Quantitative PCR (QPCR) was performed using Power SYBR Green Mastermix (Applied Biosystems) on an Applied Biosystems StepOnePlus Real-Time PCR System. All oligonucleotide primers were obtained from Integrated DNA Technologies and are listed below. The GAPDH primer was used as a control. All assays were performed and repeated twice and results were plotted as average fold change relative to GAPDH.

[11] = tested on: DUSP6 or SPRY2 mRNA expression in RWPE cells expressing ESRP1-RAF1; settings: U0126, 10 mM, 2 hours, Keratinocyte-supplement free media, FIG. 11
Experimental: as §3, §4

Sequence of BRAFV600E mutation (P15056 whole entry V600E): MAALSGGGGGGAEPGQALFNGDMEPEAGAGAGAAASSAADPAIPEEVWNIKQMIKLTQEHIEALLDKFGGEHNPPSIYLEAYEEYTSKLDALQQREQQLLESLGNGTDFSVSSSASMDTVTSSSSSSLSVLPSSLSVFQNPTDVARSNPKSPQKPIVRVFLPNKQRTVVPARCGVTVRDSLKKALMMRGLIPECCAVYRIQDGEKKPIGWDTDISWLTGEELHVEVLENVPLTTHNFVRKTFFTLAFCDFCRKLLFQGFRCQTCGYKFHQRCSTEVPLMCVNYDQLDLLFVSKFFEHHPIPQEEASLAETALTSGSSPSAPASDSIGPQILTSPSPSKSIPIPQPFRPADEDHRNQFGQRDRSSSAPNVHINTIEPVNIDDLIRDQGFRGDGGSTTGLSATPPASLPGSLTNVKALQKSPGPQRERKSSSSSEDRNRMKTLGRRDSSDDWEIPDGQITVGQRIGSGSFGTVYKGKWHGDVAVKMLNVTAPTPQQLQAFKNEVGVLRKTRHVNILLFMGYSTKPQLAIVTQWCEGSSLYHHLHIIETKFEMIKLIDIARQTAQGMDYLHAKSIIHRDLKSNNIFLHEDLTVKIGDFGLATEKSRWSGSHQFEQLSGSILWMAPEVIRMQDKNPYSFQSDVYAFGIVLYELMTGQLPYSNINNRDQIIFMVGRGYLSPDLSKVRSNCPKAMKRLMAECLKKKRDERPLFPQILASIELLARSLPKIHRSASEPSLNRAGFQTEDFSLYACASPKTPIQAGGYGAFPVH

SMILES	selectivity for the BRAFV600E mutation (BRAFV600E mutation)	increased cell proliferation, sensitivity to inhibitor [1]	anchorage-independent colony growth in soft agar, sensitivity to inhibitor [2]	anchorage-independent colony growth in soft agar, sensitivity to inhibitor [3]	fusion-mediated cell invasion, sensitivity to inhibitor [4]	fusion-mediated cell invasion, sensitivity to inhibitor [5]	increased cell proliferation, sensitivity to inhibitor [6]	MEK½ and ERK½ phosphorylation [7]	MEK and ERK phosphorylation, sensitivity to inhibitor [8]	MEK and ERK phosphorylation, sensitivity to inhibitor [9]	DUSP6 or SPRY2 mRNA expression [10]	DUSP6 or SPRY2 mRNA expression [11]
CC(C)S(=O)(=O)Nc1ccc(F)c(C(=O)c2c[nH]c3ncc(-c4cccnc4)cc23)c1F [PLX-4032]	highly selective											
CNC(=O)c1cc(Oc2ccc(NC(=O)Nc3ccc(Cl)c(C(F)(F)F)c3)cc2)ccn1 [sorafenib, N-(3-trifluoromethyl-4-chlorophenyl)-N′-(4-(2-methylcarbamoylpyridin-4-yl)oxyphenyl)urea]		sensitive	sensitive	sensitive	sensitive	sensitive	sensitive					
N#CC(=C(/N)Sc1ccccc1N)/C(C#N)=C(\N)Sc1ccccc1N [U0126]			sensitive	sensitive	sensitive	sensitive		decreased	sensitive	sensitive	significantly decreases	significantly decreases
